The target in this experiment is T1, AmdP (Polymorphum gilvum, UniProt F2IXG8).
T1 construct: gene SL003B_3169; full length, 744 bp codon-adapted synthetic gene, pET-21a NdeI/XhoI, C-terminal His6 tag kept, E. coli BL21, Ni-NTA purified
T1 sequence (F2IXG8 1-247): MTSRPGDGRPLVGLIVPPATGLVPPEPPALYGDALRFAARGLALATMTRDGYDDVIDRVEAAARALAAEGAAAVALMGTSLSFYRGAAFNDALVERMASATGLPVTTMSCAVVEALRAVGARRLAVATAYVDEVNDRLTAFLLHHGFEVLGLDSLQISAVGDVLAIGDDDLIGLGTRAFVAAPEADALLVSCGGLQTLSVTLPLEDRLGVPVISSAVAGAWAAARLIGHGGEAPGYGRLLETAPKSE
Description: chiral GC of product after derivatisation. The class given is biochemical. The following applies: 10 mM substrate, 50 mM Tris pH 7.5; substrate contained <4% racemic flurbiprofen.

As for `CC(C(=O)O)(C(=O)O)c1ccc(-c2ccccc2)c(F)c1` [2a, flurbiprofen malonate], the “chiral GC of product after derivatisation” value is recorded as “selectivity of all three AMDases was analyzed with aryl malonic acid derivates”.

The values above are taken from PMC4996985, “Sequence-Based Screening for Rare Enzymes: New Insights into the World of AMDases Reveal a Conserved Motif and 58 Novel Enzymes Clustering in Eight Distinct Families” (Frontiers in Microbiology, 2016).
